Measured values: PubChem BioAssay (NCI)
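GI50 = concentration required for 50% inhibition of growth. TGI is the concentration that stops growth completely.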

How the values were obtained:
Assay in all cases: NCI tumour cell line growth inhibition, 384-well format; in the data active = GI50 below about 0.43 µM; inactive = the rest
LOX IMVI melanoma = test system: LOX IMVI melanoma
MDA-MB-231 breast = test system: MDA-MB-231 breast
OVCAR-5 ovarian = test system: OVCAR-5 ovarian
PC-3 prostate = test system: PC-3 prostate
BT-549 breast = test system: BT-549 breast
786-0 renal = test system: 786-0 renal
EKVX NSCLC = test system: EKVX NSCLC
NCI-H226 lung = test system: NCI-H226 lung
NCI/ADR-RES ovarian = test system: NCI/ADR-RES ovarian
SF-268 CNS = test system: SF-268 CNS
SF-539 CNS = test system: SF-539 CNS
SN12C renal = test system: SN12C renal
MDA-MB-435 melanoma = test system: MDA-MB-435 melanoma
HCC-2998 colon = test system: HCC-2998 colon
MALME-3M melanoma = test system: MALME-3M melanoma
UACC-257 melanoma = test system: UACC-257 melanoma
M14 melanoma = test system: M14 melanoma
T-47D breast = test system: T-47D breast
NCI-H23 lung = test system: NCI-H23 lung
MCF7 breast = test system: MCF7 breast
OVCAR-8 ovarian = test system: OVCAR-8 ovarian
COLO 205 colon = test system: COLO 205 colon
HCT-15 colon = test system: HCT-15 colon
UACC-62 melanoma = test system: UACC-62 melanoma
KM12 colon = test system: KM12 colon
CAKI-1 renal = test system: CAKI-1 renal
ACHN renal = test system: ACHN renal
HL-60(TB) leukemia = test system: HL-60(TB) leukemia
OVCAR-4 ovarian = test system: OVCAR-4 ovarian
SNB-19 CNS = test system: SNB-19 CNS
RXF 393 renal = test system: RXF 393 renal
A498 renal = test system: A498 renal
SK-MEL-2 melanoma = test system: SK-MEL-2 melanoma
TK-10 renal = test system: TK-10 renal
CCRF-CEM leukemia = test system: CCRF-CEM leukemia
HS 578T breast = test system: HS 578T breast
SNB-75 CNS = test system: SNB-75 CNS
A549 NSCLC = test system: A549 NSCLC
K-562 leukemia = test system: K-562 leukemia
UO-31 renal = test system: UO-31 renal
SF-295 CNS = test system: SF-295 CNS
NCI-H522 lung = test system: NCI-H522 lung
SK-MEL-28 melanoma = test system: SK-MEL-28 melanoma
IGROV1 ovarian = test system: IGROV1 ovarian
MOLT-4 leukemia = test system: MOLT-4 leukemia
DU-145 prostate = test system: DU-145 prostate
MDA-MB-468 breast = test system: MDA-MB-468 breast
SK-OV-3 ovarian = test system: SK-OV-3 ovarian
OVCAR-3 ovarian = test system: OVCAR-3 ovarian
HOP-62 NSCLC = test system: HOP-62 NSCLC
SR leukemia = test system: SR leukemia
SW-620 colon = test system: SW-620 colon
HT29 colon = test system: HT29 colon
SK-MEL-5 melanoma = test system: SK-MEL-5 melanoma
HCT-116 colon = test system: HCT-116 colon
U251 glioblastoma = test system: U251 glioblastoma
NCI-H322M lung = test system: NCI-H322M lung
HOP-92 NSCLC = test system: HOP-92 NSCLC
NCI-H460 NSCLC = test system: NCI-H460 NSCLC

Cc1nc(N2CCC3(CC2)CO[C@@H](C)[C@H]3N)c(CO)nc1Sc1ccnc(N)c1Cl
50.5 µM: TGI (OVCAR-8 ovarian)
95 µM: TGI (HCC-2998 colon)
42.6 µM: TGI (M14 melanoma)
20.6 µM: TGI (NCI-H23 lung)
active: GI50 (NCI-H23 lung) 0.0838 µM | GI50 (KM12 colon) 0.321 µM | GI50 (CAKI-1 renal) 0.414 µM | GI50 (K-562 leukemia) 0.0619 µM | GI50 (NCI-H522 lung) 0.044 µM | GI50 (MDA-MB-468 breast) 0.145 µM | GI50 (NCI-H322M lung) 0.166 µM | GI50 (HOP-92 NSCLC) 0.115 µM
82.2 µM: TGI (T-47D breast)
60.2 µM: TGI (CCRF-CEM leukemia)
71.8 µM: TGI (HT29 colon)
18.5 µM: TGI (NCI-H522 lung)
78.1 µM: TGI (SK-MEL-2 melanoma)
> 100 µM: TGI (LOX IMVI melanoma) | TGI (MDA-MB-231 breast) | TGI (OVCAR-5 ovarian) | TGI (PC-3 prostate) | TGI (BT-549 breast) | TGI (786-0 renal) | TGI (NCI-H226 lung) | TGI (NCI/ADR-RES ovarian) | TGI (SF-268 CNS) | TGI (SF-539 CNS) | TGI (SN12C renal) | TGI (MDA-MB-435 melanoma) | TGI (MCF7 breast) | TGI (COLO 205 colon) | TGI (HCT-15 colon) | TGI (UACC-62 melanoma) | TGI (KM12 colon) | TGI (CAKI-1 renal) | TGI (ACHN renal) | TGI (OVCAR-4 ovarian) | TGI (SNB-19 CNS) | TGI (A498 renal) | TGI (TK-10 renal) | TGI (HS 578T breast) | TGI (A549 NSCLC) | TGI (UO-31 renal) | TGI (SF-295 CNS) | TGI (SK-MEL-28 melanoma) | TGI (IGROV1 ovarian) | TGI (MOLT-4 leukemia) | TGI (DU-145 prostate) | TGI (SK-OV-3 ovarian) | TGI (OVCAR-3 ovarian) | TGI (HOP-62 NSCLC) | TGI (SW-620 colon) | TGI (HCT-116 colon) | TGI (U251 glioblastoma) | TGI (NCI-H322M lung) | TGI (NCI-H460 NSCLC)
inactive: GI50 (LOX IMVI melanoma) 35.5 µM | GI50 (MDA-MB-231 breast) > 100 µM | GI50 (OVCAR-5 ovarian) 92.7 µM | GI50 (PC-3 prostate) 54.4 µM | GI50 (BT-549 breast) 17 µM | GI50 ([…]-0 renal) 29.3 µM | GI50 (EKVX NSCLC) 3.13 µM | GI50 (NCI-H226 lung) 0.714 µM | GI50 (NCI/ADR-RES ovarian) 17.7 µM | GI50 (SF-268 CNS) 91.6 µM | GI50 (SF-539 CNS) 22.1 µM | GI50 (SN12C renal) 8.42 µM | GI50 (MDA-MB-435 melanoma) > 100 µM | GI50 (HCC-2998 colon) 35.5 µM | GI50 (MALME-3M melanoma) 24.2 µM | GI50 (UACC-257 melanoma) 19.3 µM | GI50 (M14 melanoma) 21.3 µM | GI50 (T-47D breast) 17.5 µM | GI50 (MCF7 breast) 35.1 µM | GI50 (OVCAR-8 ovarian) 17.2 µM | GI50 (COLO 205 colon) 41.8 µM | GI50 (HCT-15 colon) 69.3 µM | GI50 (UACC-62 melanoma) 31.4 µM | GI50 (ACHN renal) 2.03 µM | GI50 (HL-60(TB) leukemia) 15.8 µM | GI50 (OVCAR-4 ovarian) 46.6 µM | GI50 (SNB-19 CNS) 42.1 µM | GI50 (RXF 393 renal) 12.5 µM | GI50 (A498 renal) 1.08 µM | GI50 (SK-MEL-2 melanoma) 34.7 µM | GI50 (TK-10 renal) 0.819 µM | GI50 (CCRF-CEM leukemia) 24.5 µM | GI50 (HS 578T breast) 39.4 µM | GI50 (SNB-75 CNS) 13.4 µM | GI50 (A549 NSCLC) 97 µM | GI50 (UO-31 renal) 11 µM | GI50 (SF-295 CNS) 79.8 µM | GI50 (SK-MEL-28 melanoma) 40.1 µM | GI50 (IGROV1 ovarian) 0.728 µM | GI50 (MOLT-4 leukemia) 27 µM | GI50 (DU-145 prostate) 97.5 µM | GI50 (SK-OV-3 ovarian) 13 µM | GI50 (OVCAR-3 ovarian) 35.8 µM | GI50 (HOP-62 NSCLC) 54 µM | GI50 (SR leukemia) 9.08 µM | GI50 (SW-620 colon) 54.6 µM | GI50 (HT29 colon) 27.5 µM | GI50 (SK-MEL-5 melanoma) 16 µM | GI50 (HCT-116 colon) 37.1 µM | GI50 (U251 glioblastoma) 15.6 µM | GI50 (NCI-H460 NSCLC) 41.8 µM
41.5 µM: TGI (RXF 393 renal)
92.3 µM: TGI (EKVX NSCLC)
29.5 µM: TGI (HL-60(TB) leukemia)
15.7 µM: TGI (K-562 leukemia)
1.39 µM: TGI (MDA-MB-468 breast)
21.5 µM: TGI (SR leukemia)
38.1 µM: TGI (UACC-257 melanoma)
94.4 µM: TGI (SNB-75 CNS)
12.4 µM: TGI (HOP-92 NSCLC)
54.2 µM: TGI (MALME-3M melanoma)
31.3 µM: TGI (SK-MEL-5 melanoma)
